Assay results from PMC12446468, “Anti-inflammatory and cytotoxic assessment of flavonoids isolated from Viola odorata flowers with computer-guided docking study” (Scientific Reports, 2025).
Values after ≈ are worked out from the molar mass of the structure shown.

What was measured:
COX-1 = target: T1, COX-1 (Ovis aries, UniProt P05979); experiment: COX-1 inhibition assay (Cayman COX kit); format: biochemical, ovine/human; settings: mean ± SE, n = 3
T1 construct: purchased Cayman 560131
T1 sequence (P05979 25-600): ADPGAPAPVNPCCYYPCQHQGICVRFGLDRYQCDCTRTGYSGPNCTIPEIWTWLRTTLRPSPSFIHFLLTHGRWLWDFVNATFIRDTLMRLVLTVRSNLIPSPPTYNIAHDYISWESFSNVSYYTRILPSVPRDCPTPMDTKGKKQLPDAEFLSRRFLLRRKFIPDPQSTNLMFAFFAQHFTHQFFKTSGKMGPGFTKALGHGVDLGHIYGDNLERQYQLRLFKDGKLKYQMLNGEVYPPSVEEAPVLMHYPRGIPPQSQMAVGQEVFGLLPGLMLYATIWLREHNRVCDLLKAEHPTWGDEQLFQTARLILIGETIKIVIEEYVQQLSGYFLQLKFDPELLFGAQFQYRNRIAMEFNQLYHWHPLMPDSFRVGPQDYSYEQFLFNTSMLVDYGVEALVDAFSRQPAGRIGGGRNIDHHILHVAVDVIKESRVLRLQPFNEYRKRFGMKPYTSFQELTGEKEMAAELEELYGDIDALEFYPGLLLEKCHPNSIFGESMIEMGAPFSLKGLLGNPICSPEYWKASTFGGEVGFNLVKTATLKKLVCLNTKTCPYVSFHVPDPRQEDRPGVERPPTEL
Description: (§1) The requirements for High-Performance Liquid Chromatography (HPLC) and all compounds tested were of the utmost analytical purity. […] COX-1 and COX-2 (ovine/human), as well as the 5-LOX enzyme (human recombinant) were obtained from Sigma-Aldrich. Dulbecco’s Modified Eagle’s Medium (DMEM), along with penicillin/streptomycin and L-glutamine, were acquired from Gibco BRL, California, USA. Fetal bovine serum (FBS) and 3-(4, 5-dimethylthiazol-2-yl)-2, 5-[…] (MTT) were supplied by Sigma-Aldrich, St. Louis, Missouri, USA.
(§2) The methanolic extract of V. odorata flowers and isolated flavonoids were subjected to an in vitro anti-inflammatory assessment by inhibiting two isoenzymes, cyclooxygenase COX-1 and COX-2 (ovine/human), as well as the 5-LOX enzyme (human recombinant).

[1] = MTT cytotoxicity assay, Caco-2; format: cell-based, human; settings: human, Caco-2 cells (human colonic epithelial cells), 48 h
Experimental: (§3) The assessment of cytotoxicity for the methanolic extract and isolated flavonoids was performed under controlled and sterile conditions within a Class II A2 Laminar flow biosafety cabinet. The carcinoma cell lines used in this study was obtained from Nawah Scientific Inc. (Cairo, Egypt). The cells were cultured in Dulbecco’s Modified Eagle’s Medium, enriched with 10% heat-inactivated fetal bovine serum, 100 U/ml penicillin, and 100 μg/ml streptomycin sulfate, maintained at […] in humidified incubators with 5% CO2. Upon reaching approximately 80% confluence, the cells were subcultured using a trypsin–EDTA solution. Harvesting occurred during the logarithmic growth phase. The methanolic extract and isolated flavonoids were dissolved in DMSO and stored at − 20 °C. For each experimental trial, the stock solutions were mixed with the culture medium to obtain the required final concentrations.
(§4) The effectiveness of the extract was compared to that of the reference drug, Doxorubicin. The percentage of cell viability was calculated by taking the ratio of the absorbance of the plant extract to that of the control, multiplied by 100. Furthermore, the IC50 value of the plant extract was determined using Sigma Plot software version 11 (Spw.exe) (https://sigmaplot.software.informer.com/11.0/).

[2] = tested on: human colonic epithelial cells (Caco-2); experiment: MTT cytotoxicity assay, Caco-2; format: cell-based; settings: Homo sapiens, Caco-2, 48 h, read-out: IC50
Experimental: as §3, §4

[3] = tested on: hepatocellular carcinoma (HepG2); experiment: MTT cytotoxicity assay, HepG2; format: cell-based, human; settings: Homo sapiens, HepG2, 48 h, read-out: IC50
Experimental: as §3, §4

[4] = MTT cytotoxicity assay, HepG2; format: cell-based, human; settings: human, HepG2 cells (hepatocellular carcinoma), 48 h
Experimental: as §3, §4

COX-2 = target: T2, COX-2 (Homo sapiens, UniProt P35354); experiment: COX-2 inhibition assay (Cayman COX kit); format: biochemical, ovine/human
T2 construct: purchased Cayman 560131
T2 sequence (P35354 18-604): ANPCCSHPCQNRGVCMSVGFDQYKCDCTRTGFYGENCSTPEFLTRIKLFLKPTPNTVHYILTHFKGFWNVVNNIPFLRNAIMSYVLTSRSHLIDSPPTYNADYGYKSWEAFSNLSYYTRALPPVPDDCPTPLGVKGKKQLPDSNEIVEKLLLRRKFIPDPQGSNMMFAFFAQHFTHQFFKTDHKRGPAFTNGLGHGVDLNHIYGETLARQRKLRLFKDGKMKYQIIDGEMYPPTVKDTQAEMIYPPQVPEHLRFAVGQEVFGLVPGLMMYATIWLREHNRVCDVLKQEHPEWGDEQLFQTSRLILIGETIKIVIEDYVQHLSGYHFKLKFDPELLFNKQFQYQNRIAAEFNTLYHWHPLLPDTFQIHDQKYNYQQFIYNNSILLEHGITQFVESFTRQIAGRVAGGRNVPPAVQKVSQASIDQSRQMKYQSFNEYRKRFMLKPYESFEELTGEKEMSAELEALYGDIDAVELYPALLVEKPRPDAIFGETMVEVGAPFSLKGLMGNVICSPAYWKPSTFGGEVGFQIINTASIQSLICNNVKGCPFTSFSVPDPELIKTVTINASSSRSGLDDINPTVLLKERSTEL
Description: as §1, §2

Compound: COc1c(O)cc2oc(-c3ccccc3)c(OC)c(=O)c2c1O [5,7-Dihydroxy-3,6-dimethoxyflavone]
- IC50 (COX-1): 3.93 µM
- cytotoxicity at 48 h, 6.25 µg/ml ([1]; Caco-2, 6.25 ug/ml): 27.8%
- viability at 48 h, 6.25 µg/ml ([1]; Caco-2, 6.25 ug/ml, read-out: % Cell viability): 72.2%
- cytotoxicity at 48 h, 12.5 µg/ml ([1]; Caco-2, 12.5 ug/ml): 37.8%
- viability at 48 h, 12.5 µg/ml ([1]; Caco-2, 12.5 ug/ml, read-out: % Cell viability): 62.2%
- cytotoxicity at 48 h, 25 µg/ml ([1]; Caco-2, 25 ug/ml): 48.9%
- viability at 48 h, 25 µg/ml ([1]; Caco-2, 25 ug/ml, read-out: % Cell viability): 51.1%
- cytotoxicity at 48 h, 50 µg/ml ([1]; Caco-2, 50 ug/ml): 66.5%
- viability at 48 h, 50 µg/ml ([1]; Caco-2, 50 ug/ml, read-out: % Cell viability): 33.5%
- cytotoxicity at 48 h, 100 µg/ml ([1]; Caco-2, 100 ug/ml): 86.7%
- viability at 48 h, 100 µg/ml ([1]; Caco-2, 100 ug/ml, read-out: % Cell viability): 13.3%
- IC50 [2]: 32.8 µg/mL (≈ 104 µM)
- IC50 [3]: 32 µg/mL (≈ 102 µM)
- cytotoxicity at 48 h, 6.25 µg/ml ([4]; HepG2, 6.25 ug/ml): 24.9%
- viability at 48 h, 6.25 µg/ml ([4]; HepG2, 6.25 ug/ml, read-out: % Cell viability): 75.1%
- cytotoxicity at 48 h, 12.5 µg/ml ([4]; HepG2, 12.5 ug/ml): 35.4%
- viability at 48 h, 12.5 µg/ml ([4]; HepG2, 12.5 ug/ml, read-out: % Cell viability): 64.9%
- cytotoxicity at 48 h, 25 µg/ml ([4]; HepG2, 25 ug/ml): 55.9%
- viability at 48 h, 25 µg/ml ([4]; HepG2, 25 ug/ml, read-out: % Cell viability): 44.1%
- cytotoxicity at 48 h, 50 µg/ml ([4]; HepG2, 50 ug/ml): 69.9%
- viability at 48 h, 50 µg/ml ([4]; HepG2, 50 ug/ml, read-out: % Cell viability): 30.1%
- cytotoxicity at 48 h, 100 µg/ml ([4]; HepG2, 100 ug/ml): 83.5%
- viability at 48 h, 100 µg/ml ([4]; HepG2, 100 ug/ml, read-out: % Cell viability): 16.5%
- IC50 (COX-2; mean ± SE, n = 3): 4.72 µM
- Selectivity Index (COX-1/COX-2) (COX-2; ratio of IC50 COX-1 to IC50 COX-2): 0.83
